Assay results as given in ChEMBL document CHEMBL1201862, “PubChem BioAssay data set” (2004).
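Exposure lasted 48 hours, with cells grown in 96-well plates and compounds tested at five concentrations. The concentration for 50% growth inhibition is given as GI50.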 Activity calls are given as the source filed them. Rule as the data show it: active = GI50 up to about 1.1 µM and inactive = higher.

How the values were obtained:
Assay in all cases: NCI tumour cell line growth inhibition, 48 h
A549 = tested on: A549
CAKI-1 = tested on: CAKI-1
COLO 205 = tested on: COLO 205
DU-145 = tested on: DU-145
HCC 2998 = tested on: HCC 2998
HT-29 = tested on: HT-29
Hs-578T = tested on: Hs-578T
K562 = tested on: K562
KM12 = tested on: KM12
MCF7 = tested on: MCF7
Malme-3M = tested on: Malme-3M
RXF 393 = tested on: RXF 393
SNB-19 = tested on: SNB-19
SR = tested on: SR
T47D = tested on: T47D
UO-31 = tested on: UO-31
ACHN = tested on: ACHN
NCI-H522 = tested on: NCI-H522
TK-10 = tested on: TK-10

| SMILES | GI50 (A549) | GI50 (CAKI-1) | GI50 (COLO 205) | GI50 (DU-145) | GI50 (HCC 2998) | GI50 (HT-29) | GI50 (Hs-578T) | GI50 (K562) | GI50 (KM12) | GI50 (MCF7) | GI50 (Malme-3M) | GI50 (RXF 393) | GI50 (SNB-19) | GI50 (SR) | GI50 (T47D) | GI50 (UO-31) | GI50 (ACHN) | GI50 (NCI-H522) | GI50 (TK-10) |
| --- | --- | --- | --- | --- | --- | --- | --- | --- | --- | --- | --- | --- | --- | --- | --- | --- | --- | --- | --- |
| CCOC(=O)c1cc2c3c(cc(OC)c2[nH]1)N(C(=O)OCC)CC3 | > 100 µM (inactive) | > 100 µM (inactive) | > 100 µM (inactive) | > 100 µM (inactive) | > 100 µM (inactive) | > 100 µM (inactive) | > 100 µM (inactive) | > 100 µM (inactive) | > 100 µM (inactive) | > 100 µM (inactive) | > 100 µM (inactive) | > 100 µM (inactive) | > 100 µM (inactive) | 86.1 µM (inactive) | > 100 µM (inactive) | > 100 µM (inactive) | – | – | – |
| O=C1C(=c2cc3c(c4ccccc24)=NC24CCCCC2C(c2ccccc2)C=C(c2ccccc2)N34)C(=O)c2ccccc21 (stereo not drawn) | 41 µM (inactive) | 53 µM (inactive) | 33 µM (inactive) | 57.3 µM (inactive) | – | 53 µM (inactive) | 34 µM (inactive) | 23 µM (inactive) | 30.4 µM (inactive) | 14.4 µM (inactive) | 45.1 µM (inactive) | 18.5 µM (inactive) | 45.2 µM (inactive) | 26.4 µM (inactive) | 3.48 µM (inactive) | 22.9 µM (inactive) | 54.3 µM (inactive) | 16.7 µM (inactive) | > 100 µM (inactive) |
| CCCCCCCCCCCCNC(=O)CCC(NC(=O)c1ccc(N(C)Cc2cnc3nc(N)nc(N)c3n2)cc1)C(=O)NCCCCCCCCCCCC (stereo not drawn) | > 100 µM (inactive) | – | > 100 µM (inactive) | > 100 µM (inactive) | 45.7 µM (inactive) | > 100 µM (inactive) | 27.2 µM (inactive) | 18.5 µM (inactive) | 46.7 µM (inactive) | 30.6 µM (inactive) | 95.5 µM (inactive) | 18.4 µM (inactive) | 22.9 µM (inactive) | 11.9 µM (inactive) | 24.4 µM (inactive) | > 100 µM (inactive) | > 100 µM (inactive) | > 100 µM (inactive) | 38.3 µM (inactive) |
| COc1cc(S(=O)(=O)Nc2ccc(-c3csc(N4C(=O)CSC4c4ccccc4)n3)cc2)ccc1Cl (stereo not drawn) | 0.785 µM (active) | > 100 µM (inactive) | 35.6 µM (inactive) | > 100 µM (inactive) | 20.4 µM (inactive) | 54.2 µM (inactive) | 55.6 µM (inactive) | 39.7 µM (inactive) | 30.5 µM (inactive) | 22.6 µM (inactive) | > 100 µM (inactive) | 29.2 µM (inactive) | 13.7 µM (inactive) | 32.3 µM (inactive) | 16.3 µM (inactive) | 79.4 µM (inactive) | 15.2 µM (inactive) | 34.4 µM (inactive) | – |
| O=C1Nc2ccccc2C1Cc1ccc([N+](=O)[O-])cc1 (stereo not drawn) | > 100 µM (inactive) | > 100 µM (inactive) | 50 µM (inactive) | > 100 µM (inactive) | > 100 µM (inactive) | > 100 µM (inactive) | 63.4 µM (inactive) | > 100 µM (inactive) | 36.2 µM (inactive) | > 100 µM (inactive) | – | > 100 µM (inactive) | > 100 µM (inactive) | 19.4 µM (inactive) | > 100 µM (inactive) | > 100 µM (inactive) | > 100 µM (inactive) | 35.9 µM (inactive) | > 100 µM (inactive) |
| Oc1ccc([C@H]2c3c(O)cc(O)cc3C3c4c(cc(O)cc4[C@@H]2[C@H]2c4cc(O)cc5c4C(c4cc(O)cc(O)c4[C@@H]2c2ccc(O)cc2)[C@@H](c2ccc(O)cc2)O5)O[C@@H]3c2ccc(O)cc2)cc1 (stereo partly drawn) | 0.634 µM (active) | > 100 µM (inactive) | 0.348 µM (active) | 2.99 µM (inactive) | 0.452 µM (active) | 0.861 µM (active) | 0.0497 µM (active) | 35.2 µM (inactive) | 0.0211 µM (active) | 0.955 µM (active) | 0.411 µM (active) | 0.0486 µM (active) | 3.35 µM (inactive) | 16.9 µM (inactive) | 0.536 µM (active) | – | 6.93 µM (inactive) | 7.45 µM (inactive) | > 100 µM (inactive) |
| Cc1cc2c(cc1Cl)SC(c1ccccc1)C(=O)NS2(=O)=O (stereo not drawn) | – | 38.9 µM (inactive) | – | 34.9 µM (inactive) | 30.3 µM (inactive) | 32 µM (inactive) | 27.5 µM (inactive) | 39.2 µM (inactive) | 30.3 µM (inactive) | 34 µM (inactive) | – | 31.4 µM (inactive) | – | 27.5 µM (inactive) | 30.1 µM (inactive) | 28.1 µM (inactive) | 36.7 µM (inactive) | 25.9 µM (inactive) | 37.6 µM (inactive) |
| CCC(C(=O)C(=O)C(CC)P1(=O)OC(C)(C)CN1C(C)(C)C)P1(=O)OC(C)(C)CN1C(C)(C)C (stereo not drawn) | > 100 µM (inactive) | > 100 µM (inactive) | > 100 µM (inactive) | > 100 µM (inactive) | > 100 µM (inactive) | > 100 µM (inactive) | > 100 µM (inactive) | 31.8 µM (inactive) | > 100 µM (inactive) | 68.5 µM (inactive) | – | > 100 µM (inactive) | > 100 µM (inactive) | 60.4 µM (inactive) | > 100 µM (inactive) | > 100 µM (inactive) | > 100 µM (inactive) | > 100 µM (inactive) | > 100 µM (inactive) |
| Brc1ccc(-c2cc(-c3ccc4c(c3)OCO4)c(-c3cccs3)n2Cc2ccccc2)cc1 | > 100 µM (inactive) | > 100 µM (inactive) | > 100 µM (inactive) | > 100 µM (inactive) | > 100 µM (inactive) | > 100 µM (inactive) | > 100 µM (inactive) | > 100 µM (inactive) | > 100 µM (inactive) | > 100 µM (inactive) | – | > 100 µM (inactive) | > 100 µM (inactive) | > 100 µM (inactive) | > 100 µM (inactive) | > 100 µM (inactive) | > 100 µM (inactive) | – | > 100 µM (inactive) |
| COc1ccc2nc3ccc(OC)cc3c(SCc3ccccc3)c2c1 | > 82.4 µM (inactive) | > 100 µM (inactive) | > 86.3 µM (inactive) | > 100 µM (inactive) | 38.8 µM (inactive) | > 100 µM (inactive) | > 100 µM (inactive) | > 63.2 µM (inactive) | > 100 µM (inactive) | > 55.3 µM (inactive) | > 100 µM (inactive) | > 100 µM (inactive) | > 100 µM (inactive) | > 32.9 µM (inactive) | > 100 µM (inactive) | – | 97.9 µM (inactive) | > 84.9 µM (inactive) | > 80.7 µM (inactive) |
| N=C(N)NCCN1CCCCCc2ccccc21 | > 10 µM (inactive) | > 10 µM (inactive) | > 10 µM (inactive) | > 10 µM (inactive) | > 10 µM (inactive) | > 10 µM (inactive) | 8.05 µM (inactive) | > 10 µM (inactive) | > 10 µM (inactive) | > 10 µM (inactive) | > 10 µM (inactive) | > 10 µM (inactive) | > 10 µM (inactive) | > 10 µM (inactive) | > 10 µM (inactive) | – | > 10 µM (inactive) | > 10 µM (inactive) | > 10 µM (inactive) |
| CCOC(=O)[C@@H]1ON2O[C@H](OC3CCCCC3c3ccccc3)C[C@H]3OC(=O)[C@@H]1C32 (stereo partly drawn) | > 100 µM (inactive) | > 100 µM (inactive) | > 100 µM (inactive) | > 100 µM (inactive) | 64.6 µM (inactive) | > 100 µM (inactive) | > 100 µM (inactive) | > 100 µM (inactive) | 80 µM (inactive) | > 100 µM (inactive) | – | > 100 µM (inactive) | – | > 100 µM (inactive) | > 100 µM (inactive) | > 100 µM (inactive) | > 100 µM (inactive) | 67.6 µM (inactive) | > 100 µM (inactive) |
| COC(=O)C(Cc1c[nH]c2ccccc12)NP(=O)(O)OCC1OC(n2cc(Br)c(=O)[nH]c2=O)CC1O (stereo not drawn) | > 100 µM (inactive) | – | > 100 µM (inactive) | > 100 µM (inactive) | > 100 µM (inactive) | > 100 µM (inactive) | > 100 µM (inactive) | > 100 µM (inactive) | > 100 µM (inactive) | > 100 µM (inactive) | > 100 µM (inactive) | > 100 µM (inactive) | > 100 µM (inactive) | > 100 µM (inactive) | > 100 µM (inactive) | > 100 µM (inactive) | > 100 µM (inactive) | > 100 µM (inactive) | > 100 µM (inactive) |
| Cc1ccc(N2C(N)=C(C#N)C(C#N)(C#N)C2c2ccccc2)cc1 (stereo not drawn) | 16.6 µM (inactive) | 8.97 µM (inactive) | 10.2 µM (inactive) | 14.9 µM (inactive) | 13 µM (inactive) | 3.97 µM (inactive) | 21 µM (inactive) | – | 17.2 µM (inactive) | 4.95 µM (inactive) | 11.5 µM (inactive) | 6.64 µM (inactive) | 17.5 µM (inactive) | 8.65 µM (inactive) | 5.74 µM (inactive) | 15.8 µM (inactive) | 14.2 µM (inactive) | 5.42 µM (inactive) | 14.4 µM (inactive) |
| O=C(O)[C@@H]1CCCN1 [PROLINE] | > 100 µM (inactive) | – | > 100 µM (inactive) | > 100 µM (inactive) | > 100 µM (inactive) | > 100 µM (inactive) | > 100 µM (inactive) | > 100 µM (inactive) | > 100 µM (inactive) | > 100 µM (inactive) | > 100 µM (inactive) | > 100 µM (inactive) | > 100 µM (inactive) | > 100 µM (inactive) | > 100 µM (inactive) | > 100 µM (inactive) | > 100 µM (inactive) | > 100 µM (inactive) | > 100 µM (inactive) |
